Measurements from the METLIN SMRT retention time set (Domingo-Almenara et al. 2019).

Assay: gradient 5% acetonitrile 3 min, to 50% in 2 min, to 85% in 15 min, held 3 min, 100 µL/min
Details: column: Zorbax Extend-C18 2.1 x 50 mm; eluents: water / acetonitrile, 0.1% formic acid
Outline: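 Using water and acetonitrile that each contained 0.1% formic acid, mixtures of ~100 pure standards were separated at 100 μL/min on a Zorbax Extend-C18 column (2.1 × 50 mm, 1.8 μm). The HPLC fed a quadrupole time-of-flight mass spectrometer working in positive and negative ionization mode, with dead and dwell volumes of 40 μL and 900 μL. Data were acquired over 3 months. Retention time was read from computationally picked adduct peaks after manual inspection of each.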

Row | RP-LC retention time [s] | SMILES
1 | 663 | O=C(NC1CC1)c1ccc(N2CCC(NCc3ccc(C(F)(F)F)cc3)C2)nc1 (configuration not stated)
2 | 1140 | CCOc1ccc(CNC(=O)c2nnn(Cc3nc(-c4cccc(C)c4)oc3C)c2C)cc1
3 | 740 | CC(C)n1nc(CNC(=O)CNC(=O)c2ccccc2)c2ccccc21
4 | 685 | O=C(c1cc(-c2cccnc2)n[nH]1)N1CCCC(C(=O)N2CCN(c3ccc(Cl)cc3)CC2)C1 (configuration not stated)
5 | 786 | CCC(=O)N1CCc2cc(N3CC(C(=O)Nc4ccc(C)cc4)CC3=O)ccc21 (configuration not stated)
6 | 1140 | Cc1ccc(S(=O)(=O)N2CC(C(=O)NC3CCCC3)Oc3ccc(C)cc32)cc1 (configuration not stated)
7 | 849 | COc1ccc(-n2c(=O)n(C)c(=O)c3cc(C(=O)NCc4ccc(F)cc4)cnc32)cc1
8 | 899 | Cc1ccc(NC(=O)NC2CCN(c3ccc(F)c(C)c3)C2=O)cc1C (configuration not stated)
9 | 958 | CC(C)c1ccc(NC(=O)C2CCN(S(=O)(=O)c3cc(C(=O)N(C)C)cs3)CC2)cc1
10 | 585 | O=C(CCNc1cnc2cnccn12)NCc1ccccc1C(F)(F)F
11 | 813 | O=C(c1ccc(N2CCCCC2)c(S(=O)(=O)N2CCCCC2)c1)N1CCN(c2ccccn2)CC1
12 | 723 | CCCN(C)c1nccnc1OC1CCN(C(=O)c2ccoc2)C1 (configuration not stated)
13 | 819 | O=C(NCc1ccccc1F)C1CCN(C(=O)c2ncn3c2COC(c2ccc(Cl)cc2)C3)CC1 (configuration not stated)
14 | 909 | O=C(CSc1ccc(F)cc1)NCC1(c2ccc(F)cc2)CC1
15 | 895 | CC1Cc2ccccc2N1C(=O)c1ccc(=O)n(CCC(=O)NC2CCCCCCC2)n1 (configuration not stated)
16 | 624 | COC(=O)c1sccc1S(=O)(=O)N1CCN(c2ccccn2)CC1
17 | 696 | CCc1nc2cc(N3CCCC(C(=O)NC4CC4)C3)cnc2nc1CC (configuration not stated)
18 | 796 | CC(C)N1C(=O)Cc2ccccc2C1C(=O)NCc1ccc(F)cc1 (configuration not stated)

Row | RP-LC retention time [s] | SMILES
19 | 860 | CC(C)Sc1ccc(CC(=O)NCC2CCN(C(=O)Nc3ccc(F)cc3)CC2)cc1
20 | 795 | O=C(NCc1ccco1)C1CN(C(=O)c2ccccc2)CC12CCCCC2 (configuration not stated)
21 | 1130 | Brc1cccc(-c2nc3cnccn3c2NC2CCCCC2)c1
22 | 647 | Cc1cc(C)c(S(=O)(=O)N2CCCC(C(=O)NCc3ccncc3)C2)c(C)c1 (configuration not stated)
23 | 1330 | CCc1ccc(-c2csc(Nc3ccc(Br)cn3)n2)cc1
24 | 781 | Cc1cc2nn(CC(=O)NCc3ccccc3)c(=O)n2c(-c2ccc(F)cc2)n1
25 | 1170 | Fc1ccc(Nc2nc(N3CCOCC3)nc3c2cnn3-c2ccccc2)cc1
26 | 577 | O=C(NC1CC1)c1cc(N2CCCC2)nc2ccccc12
27 | 814 | O=c1ccc(S(=O)(=O)N2CCOCC2)cn1Cc1ccc(Cl)cc1
28 | 917 | COC(=O)c1cc2c(=O)n(-c3cccc(C(F)(F)F)c3)ccc2nc1C
29 | 767 | O=C(c1ccoc1)N1CCN(C(=O)c2nnn3c2COC(c2ccccc2)C3)CC1 (configuration not stated)
30 | 845 | CC1=C(c2ccc(F)cc2)S(=O)(=O)N=C1N1CCCN(C(=O)NC2CCCCC2)CC1
31 | 916 | Cc1ccc(C)c(C(=O)N2CCCC(COc3ccc(C(=O)NC(C)C)cc3)C2)c1 (configuration not stated)
32 | 947 | CC(C)c1ccc(C(=O)N2CCC(COc3ccc(C(=O)NC4CC4)cc3)CC2)cc1
33 | 726 | CN1C(=O)CSc2cnn(CC(=O)N3CCCc4ccccc43)c(=O)c21
34 | 1070 | CC(C)OCCCNC(=O)C1CCCN(c2nc3ccccc3n(Cc3ccccc3)c2=O)C1 (configuration not stated)
35 | 775 | O=C(NCC1(c2cccs2)CCOCC1)C(=O)NC1CCCC1

Further lines, the molecule ahead of its results:

Row | SMILES | RP-LC retention time [s]
36 | Cc1ccc2[nH]cc(CCNC(=O)CCc3nnc(C(=O)Nc4ccccc4)s3)c2c1 | 875
37 | Cc1ccc(C(=O)N2C[C@H]3C[C@H](C2)[C@H]2CCCC(=O)N2C3)s1 | 646
38 | O=C(Cc1ccccc1)Nc1cccc(C(=O)Nc2ccccc2C(=O)O)c1 | 830
39 | Cc1ccn2c(Nc3ccccc3C)c(-c3c(F)cccc3Cl)nc2c1 | 766
40 | CC(C)c1noc(-c2ccnc(-n3cnc(C(=O)NC(C)c4ccccc4)c3)c2)n1 (configuration not stated) | 1000
41 | COc1ccc(OC)c(CNC(=O)Cn2cc(-c3nnco3)c3ccccc32)c1 | 765
42 | O=C1CC(c2nc(-c3ccc4c(c3)OCO4)no2)CN1c1cccc(Cl)c1 (configuration not stated) | 999
43 | CN(C)c1nn(CC(=O)NCc2ccc3c(c2)OCO3)c(=O)c2ccccc12 | 765
44 | O=C(NCCc1csc(C2CCCN(C(=O)CC3CCCC3)C2)n1)C1CC1 (configuration not stated) | 757
45 | COc1ccc(-c2cn3ccn(-c4cccc(Cl)c4)c(=O)c3n2)cc1 | 837
46 | COc1ccc(-c2nnc(-c3ccc(C)c(S(=O)(=O)N4CCC(C)CC4)c3)o2)cc1OC | 1150
47 | CNC(=O)[C@@H]1CN(C(=O)CCc2c(C)noc2C)C[C@H]1c1n[nH]c(C)n1 | 568
48 | COc1cc(C2C(C(=O)N3CCCC3)CCC(=O)N2c2ccc3c(c2)OCO3)cc(OC)c1OC (configuration not stated) | 665
49 | CCn1c(=O)c2ccccc2n(Cc2nc(-c3cccc(Cl)c3)no2)c1=O | 1090
50 | Cc1cc(N2CCOCC2)nc(N2CCOCC2)n1 | 624
51 | CCc1nncn1C1CCN(S(=O)(=O)c2cc(F)ccc2OC)CC1 | 696

Row | SMILES | RP-LC retention time [s]
52 | O=C(CN1C(=O)CC(c2ccccc2)S(=O)(=O)c2ccccc21)NCCc1ccccc1 (configuration not stated) | 855
53 | COc1ccccc1-c1nnc(C2CCN(S(C)(=O)=O)CC2)s1 | 734
54 | O=S(=O)(NCc1ccccc1Cl)c1c[nH]c2ncccc12 | 742
55 | Cc1nc2ccc(Cl)cn2c1[N+](=O)[O-] | 820
56 | Clc1ccc(OCc2nc3c4ccccc4ncn3n2)cc1 | 951
57 | COc1cccc(-c2noc(CN3C(=O)COc4ccccc43)n2)c1OC | 908
58 | O=C(O)c1cn(CCOc2ccccc2)c2ccccc12 | 885
59 | CC(=O)N1CCN(c2nc3c(s2)CC(C(=O)N2CCC(C)CC2)CC3)CC1 (configuration not stated) | 537
60 | Cc1cc(NC(=O)c2ccccc2)nc(C)n1 | 667
61 | O=C(Nc1ccc2c(c1)OCCO2)c1cc(-c2ccncc2)n[nH]1 | 606
62 | Cc1cc(C)cc(NC(=O)N(C)Cc2nc3cc(C(=O)N(C)C)ccc3n2C)c1 | 639
63 | COCCNC(=O)C1Cc2ccccc2CN1S(=O)(=O)c1cccc(C)c1 (configuration not stated) | 845
64 | O=C(Nc1nnc(C2CC(=O)N(c3ccccc3)C2)o1)c1ccccc1Cl (configuration not stated) | 807
65 | CC(C)c1nnc(-c2sccc2NC(=O)C2CCC2)o1 | 1230
66 | CCn1c(=O)n(CC)c2cc(S(=O)(=O)C3CCCCC3)c(NC(C)=O)cc21 | 791
67 | CCOCCCNC(=O)N1CCN(c2nnc(C)c3c(C)n(-c4ccc(C)cc4)nc23)CC1 | 669
